Here are results for eight compounds from patent US20210130417A1, “SYSTEMS AND METHODS FOR DESIGNING SYNTHETIC ANTIMICROBIAL PEPTIDES” (University of Notre Dame du Lac, priority 2017, published 2021).

One data set has as its system E. coli BL-21. The format is cell-based, Escherichia coli.
For data set [1], the system named is sheep red blood cells (RBCs). Conditions: compared to the PBS control.
Procedure: For hemolysis assays, 100 μL of sheep red blood cells (RBCs) were washed three times in cold PBS (Thermo Fischer). Washed cells were resuspended in 25 mL of PBS. Triton, PBS, or peptide in 10% DMSO/PBS were added to 180 μL of resuspended RBCs and incubated at 37° C. for 1 h. Samples were read at 450 nm. Data was expressed as percent hemolysis by relativizing to the Triton and PBS controls.
In data set [2] the test system is Streptococcus pyogenes M1T1. The text has this:
(§1) E. coli BL-21 frozen stock culture was purchased from Thermo Fischer. Pseudomonas aeruginosa PAO1 frozen stock culture was obtained from the Shrout Laboratory at the University of Notre Dame. Pseudomonas syringae frozen stock culture was obtained from the Innes Laboratory at Indiana University. Xanthomonas axonopodis pathovar Starr and Garces pathovar phaseoli (ATCC 9563) frozen stock culture was purchased from the ATCC. Streptococcus pyogenes M1T1 frozen stock culture was obtained from the lab of Dr. Victor Nizet, University of California San Diego. A methicillin resistant Staphylococcus aureus JKD frozen stock culture was obtained from the lab of Dr. Timothy Stinear, University of Melbourne.
(§2) The E. coli, P. aeruginosa, and P. syringae bacterial strains were routinely grown in LB broth (EMD Chemicals, Gibbstown, N.J.). S. aureus and S. pyogenes were routinely grown in Todd Hewitt broth (Neogen Corporation, Lansing, Mich.). X. axonopodis was routinely grown in Nutrient Broth (Sigma-Aldrich Co., St. Louis, Mo.). P. syringae and X. axonopodis were grown at room temperature without agitation. All other bacteria were grown at 37° C. with agitation.
(§3) Overnight bacterial cultures were diluted to an OD of 0.01. […] and 10 μL of 10× peptide or vehicle were added to the wells of a 96-well microtiter plate for a final 1× concentration. Bacteria were grown in desired growth conditions in a Synergy H1 Microplate Reader (Biotek, Winooski, Vt.). For MIC, serial two-fold dilutions of the peptides were used. MIC was determined as the concentration of peptide that prevented overnight growth as indicated by OD 600. For peptide screening, 8 μM or 4 μM peptide was screened against various bacteria. Peptides that inhibited overnight growth were selected for further study.

For data set [3], the system named is Pseudomonas aeruginosa PAO1.
Excerpt: as §1, §2, §3

In brackets after ≈: the same amount, converted by molar mass. Residues, ends and D or L forms follow the SMILES beside them.

Procedure for E. coli BL-21: The E. coli, P. aeruginosa, and P. syringae bacterial strains were routinely grown in LB broth (EMD Chemicals, Gibbstown, N.J.). […] All other bacteria were grown at 37° C. with agitation.
Overnight bacterial cultures were diluted to an OD of 0.01. μL of diluted culture and 10 μL of 10× peptide or vehicle were added to the wells of a 96-well microtiter plate for a final 1× concentration. Bacteria were grown in desired growth conditions in a Synergy H1 Microplate Reader (Biotek, Winooski, Vt.). For MIC, serial two-fold dilutions of the peptides were used. MIC was determined as the concentration of peptide that prevented overnight growth as indicated by OD 600.

`CC[C@H](C)[C@H](NC(=O)[C@H](CCCCN)NC(=O)[C@H](CC(N)=O)NC(=O)[C@H](CCCCN)NC(=O)[C@H](CC(C)C)NC(=O)[C@H](Cc1ccc(O)cc1)NC(=O)[C@H](CCC(N)=O)NC(=O)[C@H](CCCNC(=N)N)NC(=O)[C@@H](NC(=O)[C@@H](NC(=O)[C@H](CCCCN)NC(=O)[C@H](CCCCN)NC(=O)[C@H](Cc1c[nH]c2ccccc12)NC(=O)[C@H](C)N)[C@@H](C)O)[C@@H](C)CC)C(=O)N[C@@H](CCCCN)C(=O)N[C@@H](CCCCN)C(=O)N[C@@H](CCCCN)C(=O)NCC(=O)N[C@@H](CCCNC(=N)N)C(=O)N[C@@H](CCCCN)C(=O)N[C@@H](C)C(=O)N[C@H](C(=O)N[C@H](C(=O)N[C@@H](C)C(=O)N[C@@H](Cc1c[nH]c2ccccc12)C(=O)O)[C@@H](C)CC)C(C)C` [Peptide 20] (H-AWKKTIRQYLKNKIKKKGRKAVIAW-OH): in the data set on E. coli BL-21, the “MIC E. coli” value was determined as 8 µM (≈ 24.5 µg/mL). Moreover, the “hemolysis of library peptides” value in data set [1] is given as “no significant changes in hemolysis”. Also, the “MIC S. pyogenes” value in data set [2] amounted to 8 µM. In addition, in data set [3], the “MIC P. aeruginosa” value came out at 10 µM.
Turning to `CC[C@H](C)[C@H](NC(=O)[C@H](CCCCN)NC(=O)[C@H](CC(N)=O)NC(=O)[C@H](CCCCN)NC(=O)[C@H](CC(C)C)NC(=O)[C@H](Cc1ccc(O)cc1)NC(=O)[C@H](CCC(N)=O)NC(=O)[C@H](CCCNC(=N)N)NC(=O)[C@@H](NC(=O)[C@@H](NC(=O)[C@H](CCCCN)NC(=O)[C@H](CCCCN)NC(=O)CNC(=O)[C@H](C)N)[C@@H](C)O)[C@@H](C)CC)C(=O)N[C@@H](CCCCN)C(=O)N[C@@H](CCCCN)C(=O)N[C@@H](CCCCN)C(=O)N[C@@H](Cc1c[nH]c2ccccc12)C(=O)N[C@@H](CCCNC(=N)N)C(=O)N[C@@H](CCCCN)C(=O)N[C@@H](C)C(=O)N[C@H](C(=O)N[C@H](C(=O)N[C@@H](C)C(=O)N[C@@H](Cc1c[nH]c2ccccc12)C(=O)O)[C@@H](C)CC)C(C)C` [Peptide 52] (H-AGKKTIRQYLKNKIKKKWRKAVIAW-OH), the “MIC E. coli” value in the data set on E. coli BL-21 was 8 µM (≈ 24.5 µg/mL). The “hemolysis of library peptides” value in data set [1] is recorded as “low levels of hemolysis at higher concentrations”. The “MIC S. pyogenes” value in data set [2] came to 8 µM. The “MIC P. aeruginosa” value in data set [3] is 10 µM.
In the case of `CC[C@H](C)[C@H](NC(=O)[C@H](CCCCN)NC(=O)[C@H](CC(N)=O)NC(=O)[C@H](CCCCN)NC(=O)[C@H](CC(C)C)NC(=O)[C@H](Cc1ccc(O)cc1)NC(=O)[C@H](CCC(N)=O)NC(=O)[C@H](CCCNC(=N)N)NC(=O)[C@@H](NC(=O)[C@@H](NC(=O)[C@H](CCCCN)NC(=O)[C@H](CCCCN)NC(=O)CNC(=O)[C@H](C)N)[C@@H](C)O)[C@@H](C)CC)C(=O)N[C@@H](CCCCN)C(=O)N[C@@H](CCCCN)C(=O)N[C@@H](CCCCN)C(=O)NCC(=O)N[C@@H](CCCNC(=N)N)C(=O)N[C@@H](CCCCN)C(=O)N[C@@H](Cc1c[nH]c2ccccc12)C(=O)N[C@H](C(=O)N[C@H](C(=O)N[C@@H](C)C(=O)N[C@@H](Cc1c[nH]c2ccccc12)C(=O)O)[C@@H](C)CC)C(C)C` [Peptide 60] (H-AGKKTIRQYLKNKIKKKGRKWVIAW-OH), the “hemolysis of library peptides” value in data set [1] is recorded as “no significant changes in hemolysis”.
As to `CC[C@H](C)[C@H](NC(=O)[C@H](CCC(=O)O)NC(=O)[C@H](CC(N)=O)NC(=O)[C@H](CCCCN)NC(=O)[C@H](CC(C)C)NC(=O)[C@H](Cc1ccc(O)cc1)NC(=O)[C@H](CCC(N)=O)NC(=O)[C@H](CCCNC(=N)N)NC(=O)[C@@H](NC(=O)[C@@H](NC(=O)[C@H](CCCCN)NC(=O)[C@H](CCCCN)NC(=O)[C@H](Cc1c[nH]c2ccccc12)NC(=O)[C@H](C)N)[C@@H](C)O)[C@@H](C)CC)C(=O)N[C@@H](CCCCN)C(=O)N[C@@H](CCCCN)C(=O)N[C@@H](CCCCN)C(=O)N[C@@H](Cc1c[nH]c2ccccc12)C(=O)N[C@@H](CCCNC(=N)N)C(=O)N[C@@H](CCCCN)C(=O)N[C@@H](C)C(=O)N[C@H](C(=O)N[C@H](C(=O)N[C@@H](C)C(=O)N[C@@H](Cc1c[nH]c2ccccc12)C(=O)O)[C@@H](C)CC)C(C)C` [Peptide 90] (H-AWKKTIRQYLKNEIKKKWRKAVIAW-OH), the “MIC E. coli” value against E. coli BL-21 turned out to be 2 µM (≈ 6.37 µg/mL). In addition, in data set [1], the “hemolysis of library peptides” value is “low levels of hemolysis at higher concentrations”. Moreover, the “MIC S. pyogenes” value in data set [2] was 8 µM.
The like results for `CC[C@H](C)[C@H](NC(=O)[C@H](CCCCN)NC(=O)[C@H](CC(N)=O)NC(=O)[C@H](CCCCN)NC(=O)[C@H](CC(C)C)NC(=O)[C@H](Cc1ccc(O)cc1)NC(=O)[C@H](CCC(N)=O)NC(=O)[C@H](CCCNC(=N)N)NC(=O)[C@@H](NC(=O)[C@@H](NC(=O)[C@H](CCC(=O)O)NC(=O)[C@H](CCCCN)NC(=O)[C@H](Cc1c[nH]c2ccccc12)NC(=O)[C@H](C)N)[C@@H](C)O)[C@@H](C)CC)C(=O)N[C@@H](CCCCN)C(=O)N[C@@H](CCCCN)C(=O)N[C@@H](CCCCN)C(=O)N[C@@H](Cc1c[nH]c2ccccc12)C(=O)N[C@@H](CCCNC(=N)N)C(=O)N[C@@H](CCCCN)C(=O)N[C@@H](C)C(=O)N[C@H](C(=O)N[C@H](C(=O)N[C@@H](C)C(=O)N[C@@H](Cc1c[nH]c2ccccc12)C(=O)O)[C@@H](C)CC)C(C)C` [Peptide 91] (H-AWKETIRQYLKNKIKKKWRKAVIAW-OH) were, in that order, 2 µM (≈ 6.37 µg/mL), “low levels of hemolysis at higher concentrations” and 10 µM.
Take `CC[C@H](C)[C@H](NC(=O)[C@H](CCCCN)NC(=O)[C@H](CC(N)=O)NC(=O)[C@H](CCCCN)NC(=O)[C@H](CC(C)C)NC(=O)[C@H](Cc1ccc(O)cc1)NC(=O)[C@H](CCC(N)=O)NC(=O)[C@H](CCCNC(=N)N)NC(=O)[C@@H](NC(=O)[C@@H](NC(=O)[C@H](CCCCN)NC(=O)[C@H](CCCCN)NC(=O)[C@H](Cc1c[nH]c2ccccc12)NC(=O)[C@H](C)N)[C@@H](C)O)[C@@H](C)CC)C(=O)N[C@@H](CCCCN)C(=O)N[C@@H](CCCCN)C(=O)N[C@@H](CCCCN)C(=O)N[C@@H](Cc1c[nH]c2ccccc12)C(=O)N[C@@H](CCCNC(=N)N)C(=O)N[C@@H](CCCCN)C(=O)N[C@@H](C)C(=O)N[C@H](C(=O)N[C@H](C(=O)N[C@@H](C)C(=O)N[C@@H](Cc1c[nH]c2ccccc12)C(=O)O)[C@@H](C)CC)C(C)C` [Peptide 92] (H-AWKKTIRQYLKNKIKKKWRKAVIAW-OH): in the data set with E. coli BL-21, the “MIC E. coli” value amounted to 4 µM (≈ 12.7 µg/mL). For the same compound, the “hemolysis of library peptides” value in data set [1] is given as “no significant changes in hemolysis”. Further, the “MIC S. pyogenes” value in data set [2] came to 8 µM.
Regarding `CC[C@H](C)[C@H](NC(=O)[C@H](CCCCN)NC(=O)[C@H](CCC(=O)O)NC(=O)[C@H](CCCCN)NC(=O)[C@H](Cc1c[nH]c2ccccc12)NC(=O)[C@H](C)N)C(=O)N[C@@H](CCCNC(=N)N)C(=O)N[C@@H](CCC(N)=O)C(=O)N[C@@H](Cc1ccc(O)cc1)C(=O)N[C@@H](CC(C)C)C(=O)N[C@@H](CCCCN)C(=O)N[C@@H](CC(N)=O)C(=O)N[C@@H](CCC(=O)O)C(=O)N[C@H](C(=O)N[C@@H](CCCCN)C(=O)N[C@@H](CCCCN)C(=O)N[C@@H](CCCCN)C(=O)N[C@@H](Cc1c[nH]c2ccccc12)C(=O)N[C@@H](CCCNC(=N)N)C(=O)N[C@@H](CCCCN)C(=O)N[C@@H](C)C(=O)N[C@H](C(=O)N[C@H](C(=O)N[C@@H](C)C(=O)N[C@@H](Cc1c[nH]c2ccccc12)C(=O)O)[C@@H](C)CC)C(C)C)[C@@H](C)CC` [Peptide 93] (H-AWKEKIRQYLKNEIKKKWRKAVIAW-OH), the “MIC E. coli” value in the data set with E. coli BL-21 was 1 µM (≈ 3.21 µg/mL). Besides, the “hemolysis of library peptides” value in data set [1] is “low levels of hemolysis at higher concentrations”. Moreover, the “MIC S. pyogenes” value in data set [2] was found to be 8 µM.
`CC[C@H](C)[C@H](NC(=O)[C@H](CCC(=O)O)NC(=O)[C@H](CC(N)=O)NC(=O)[C@H](CCCCN)NC(=O)[C@H](CC(C)C)NC(=O)[C@H](Cc1ccc(O)cc1)NC(=O)[C@H](CCCCN)NC(=O)[C@H](CCCNC(=N)N)NC(=O)[C@@H](NC(=O)[C@@H](NC(=O)[C@H](CCC(=O)O)NC(=O)[C@H](CCCCN)NC(=O)[C@H](Cc1c[nH]c2ccccc12)NC(=O)[C@H](C)N)[C@@H](C)O)[C@@H](C)CC)C(=O)N[C@@H](CCCCN)C(=O)N[C@@H](CCCCN)C(=O)N[C@@H](CCCCN)C(=O)N[C@@H](Cc1c[nH]c2ccccc12)C(=O)N[C@@H](CCCNC(=N)N)C(=O)N[C@@H](CCCCN)C(=O)N[C@@H](C)C(=O)N[C@H](C(=O)N[C@H](C(=O)N[C@@H](C)C(=O)N[C@@H](Cc1c[nH]c2ccccc12)C(=O)O)[C@@H](C)CC)C(C)C` [Peptide 94] (H-AWKETIRKYLKNEIKKKWRKAVIAW-OH): the “MIC E. coli” value in the data set with E. coli BL-21 came to 2 µM (≈ 6.38 µg/mL). The “hemolysis of library peptides” value in data set [1] is listed as “low levels of hemolysis at higher concentrations”. The “MIC S. pyogenes” value in data set [2] came to 10 µM. The “MIC P. aeruginosa” value in data set [3] stood at 8 µM.
